Inconclusive results are not listed. Active and inactive are the calls of the source. No rule for the calls is given here.

One may read the AC50 as the concentration at which the activity in the assay is half-maximal.

This assay addresses Protein AF-9 (Homo sapiens) (UniProt P42568). The experiment in a line: AF9 binding to AF4 blockers, potency – biochemical, cherry-picked samples, plate reader, dose response (AID 720495). The conditions noted are these: biochemical protein-protein interaction assay; for activity change, negative = inhibition: at 10 µM (top of the series).

Chain of Protein AF-9 (Homo sapiens) (P42568 whole entry, looked up): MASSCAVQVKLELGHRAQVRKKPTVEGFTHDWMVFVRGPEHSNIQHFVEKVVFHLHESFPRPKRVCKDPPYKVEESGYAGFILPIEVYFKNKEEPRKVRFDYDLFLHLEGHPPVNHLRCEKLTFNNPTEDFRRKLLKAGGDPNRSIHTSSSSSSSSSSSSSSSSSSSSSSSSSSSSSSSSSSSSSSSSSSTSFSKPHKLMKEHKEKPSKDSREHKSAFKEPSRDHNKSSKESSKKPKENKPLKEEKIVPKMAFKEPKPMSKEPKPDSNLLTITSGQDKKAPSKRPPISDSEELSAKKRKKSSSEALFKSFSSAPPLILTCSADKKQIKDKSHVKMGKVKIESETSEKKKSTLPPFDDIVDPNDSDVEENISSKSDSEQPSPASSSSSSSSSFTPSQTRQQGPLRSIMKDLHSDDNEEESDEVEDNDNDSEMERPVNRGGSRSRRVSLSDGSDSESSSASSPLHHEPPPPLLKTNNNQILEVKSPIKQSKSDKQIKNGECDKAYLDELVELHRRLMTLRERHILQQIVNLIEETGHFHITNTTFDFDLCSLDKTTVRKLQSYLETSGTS

As to `O=C(c1ccc(-c2cc(O)c3ncccc3c2)cc1)N1CCNCC1`, the AC50 was 0.426 µM. For `S=C(NN=C(c1ccccc1)c1ccccn1)N(Cc1ccccn1)Cc1ccccn1`, the “activity change, negative = inhibition” value is “inactive”. Regarding `c1ccc2c(NCCc3c[nH]c4ccccc34)c3ccccc3nc2c1`, the AC50 was 5.9 µM.

With `COc1ccc2sc(N(CCCN(C)C)C(=O)c3ccc(S(=O)(=O)N(C)C4CCCCC4)cc3)nc2c1`, the “activity change, negative = inhibition” value was “inactive”. For the molecule `CCN1CCN(c2ccc(N)cc2C)CC1`, the AC50 is 6.46 µM. Still for that read-out and setting: the value for `CCCCCc1cc(=O)oc2c(C(CCN3CCCC3)c3ccc(N(C)C)cc3)c(OC)cc(OC)c12` (stereo not given) was 2.31 µM; that for `CC[n+]1c(/C=C/C=C/c2ccc(N(C)C)cc2)sc2ccccc21` was 0.522 µM. Same read-out and setting: the value for `COc1ccc(N2CCN(CCCNC(=O)CCC(=O)N3CCOc4ccc(Cl)cc43)CC2)cc1` was 11.5 µM. In the case of `C#CCOCCOCCOCCNc1nc(N2CCN(C(=O)[C@H](CCCN=C(N)N)n3cc(C(N)[C@@H](C)CC)nn3)CC2)nc(N2CCN(C(=O)[C@H](CCCCN)n3cc([C@@H](N)[C@H](C)CC)nn3)CC2)n1` (stereo not given in full), the AC50 is 3.6 µM. Still for that read-out and setting: the value for `CCN(CC)c1ccc(CNc2ccc3c(c2)ncn3C(C)(C)C)cc1` was 3.48 µM. On to `COc1ccc(-n2cc(CNCCc3cnc[nH]3)c(-c3cccc(F)c3)n2)cc1`, for which the “activity change, negative = inhibition” value was “inactive”.

Take `CCCCCN=C(N)N/N=C/c1c[nH]c2ccc(OC)cc12`: the “activity change, negative = inhibition” value is “inactive”.

For `Nc1[nH]n(-c2ccccc2)c(=O)c1N=Nc1ccc2c(c1)OCCO2`, the “activity change, negative = inhibition” value is “inactive”. Turning to `O=C(NC1CCCCC1)C(c1cccnc1)N(C(=O)CCl)c1cccc(Cl)c1` (stereo not given), the “activity change, negative = inhibition” value is “inactive”. Regarding `Fc1ccc(C(c2ccc(F)cc2)N2CCN(C/C=C/c3ccccc3)CC2)cc1`, the “activity change, negative = inhibition” value is “inactive”. Take `N=C1C=CC(=C(c2ccc(N)cc2)c2ccc(N)cc2)C=C1`: the AC50 was 6.08 µM.

As to `CCOc1ccc(Nc2nc(NCC3CCCO3)c3ccccc3n2)cc1` (stereo not given), the “activity change, negative = inhibition” value is “inactive”. Turning to `CN(C)c1ccc(/C=C2/C[N+](C)(C)C/C(=C/c3ccc(N(C)C)cc3)C2=O)cc1`, the AC50 is 2.81 µM. Same read-out and setting: the same measure for `Cc1ccnc(NC(c2cccnc2)c2ccc3cccnc3c2O)c1` (stereo not given): 0.808 µM; for `CCOc1ccc(NCc2cccn2-c2nnc(N3CCC(C(=O)NCCCN4CCCCC4CC)CC3)s2)cc1` (stereo not given): 4.01 µM; for `Cc1ncc(CO)c(/C=N/NC(=S)Nc2ccc(Cl)c(Cl)c2)c1O`: 5.79 µM. As for `COc1ccccc1N1CCN(/N=C/C=C\c2ccccc2[N+](=O)[O-])CC1`, the “activity change, negative = inhibition” value is “inactive”.

In the case of `CCCN(CC1CC1)c1cc2c(c3c1ccn3C)C1CCC2C1` (stereo not given), the AC50 is 7.79 µM. `Cc1[nH]n(-c2ccccc2)c(=O)c1N=Nc1c(O)cc(S(=O)(=O)N(C)C)c2ccccc12`: the “activity change, negative = inhibition” value is “inactive”.

On to `COc1ccc(N2CCN(C3CCCCC3NS(=O)(=O)c3ccccc3)CC2)cc1` (stereo not given), for which the “activity change, negative = inhibition” value was “inactive”. The same measure, in the same setting: the same measure for `C[n+]1c2n(c3ccccc31)N=C(c1cc(C(C)(C)C)c(O)c(C(C)(C)C)c1)CS2`: “inactive”; for `C[C@@H]1CN([C@H](C)CO)C(=O)c2c(c3ccccc3n2C)-c2ccccc2CO[C@@H]1CN(C)Cc1ccc2c(c1)OCCN2C`: “inactive”. As for `CNC[C@H](Cc1ccccc1)NC[C@@H](Cc1cccc2ccccc12)NCCc1ccc(C)cc1`, the AC50 is 10.1 µM. For the molecule `Cn1ccc2c(N3CCCCC3)cc3c(c21)C1CCC3C1` (stereo not given), the “activity change, negative = inhibition” value is “inactive”. On the same count and under the same terms, the same measure for `Cn1cc(C(=O)N/N=C/c2c(O)ccc3ccccc23)ccc1=O`: “inactive”; for `CC(=Nc1ccc(C)cc1C)c1sc2ccccc2c1O`: “inactive”. Consider `COc1ccc2nc3ccccc3nc2c1N`, for which the AC50 is 3.44 µM. As for `Cc1oc(-c2cccc3ccccc23)nc1CN1CCN(c2ncnc3ccccc23)CC1`, the “activity change, negative = inhibition” value was “inactive”. Same read-out and setting: the value for `Cc1ccc(-c2cc(-c3ccc(C)cc3)[n+](-c3ccc(C(=O)[O-])cc3)c(-c3ccc(C)cc3)c2)cc1` was “inactive”. Turning to `COc1cc(OC)c2c(-c3ccccc3)cc(=O)oc2c1C(CCN1CCCC(C)C1)c1ccc(N(C)C)cc1` (stereo not given), the AC50 was 0.943 µM. `NCC(O)c1cc(O)c(O)cc1F` (stereo not given): the AC50 is 6.14 µM.

`CN(C)c1ccc(NC(=O)Cn2cc3c(n2)CCCC3)cc1`: the “activity change, negative = inhibition” value is “inactive”. As to `O=C(COc1cc(F)ccc1[N+](=O)[O-])Nc1ccc(N2CCCCC2)cc1`, the concentration at half-maximal activity (AC50) was 9.04 µM. Turning to `O=C(NC1CCCCC1)C(c1cccs1)N(CCCN1CCOCC1)C(=O)c1ccc(-c2ccccc2)[nH]1` (stereo not given), the “activity change, negative = inhibition” value was “inactive”. As to `CCOc1cc(N2CCOCC2)c(OCC)cc1NC(=O)c1ccc2ccccc2n1`, the “activity change, negative = inhibition” value was “inactive”. For the molecule `COc1ccc(C#Cc2ccc3c(c2)[C@H]2[C@H](CCN2C(=O)c2ccncc2)[C@@H](CO)N3)cc1`, the AC50 is 10.7 µM. Still for that read-out and setting: the same measure for `CN(C)c1ccc(C=c2c3ccccc3n3c2c2ccccc2[n+]3C)cc1`: 1.65 µM; for `C[C@H](CO)N1C[C@H](C)[C@@H](CN(C)Cc2ccc(Cl)c(Cl)c2)Oc2ccc(N(C)C)cc2CC1=O`: 10.8 µM. Consider `CN(C)C(CNC(C(=O)Nc1ccc([N+](=O)[O-])cc1Br)c1ccccc1)c1ccccc1` (stereo not given), for which the “activity change, negative = inhibition” value is “inactive”. Same read-out and setting: the value for `CN1CCN(CCCN2c3ccccc3Sc3ccc(C(F)(F)F)cc32)CC1` was “inactive”. For the molecule `COc1cccc(NC2=C(NCCO)C(=O)c3ccccc3C2=O)c1`, the concentration at half-maximal activity (AC50) was 6.38 µM. Take `COc1ccccc1C#Cc1ccc2c(c1)[C@H]1[C@H](CCN1C(=O)c1ccncc1)[C@@H](CO)N2`: the AC50 was 7.63 µM. For the molecule `COc1ccc(-c2ccc3[nH]c4c(c3c2)CCN2C[C@H]3[C@H](C)ON(C)[C@H]3C[C@@H]42)cc1`, the “activity change, negative = inhibition” value was “inactive”. As to `CN[C@H]1C[C@H]2c3[nH]c4ccc(-c5cccc(C)c5)cc4c3CCN2C[C@H]1[C@H](C)O`, the AC50 was 6.97 µM. On to `CCOc1ccc(NCc2cccn2-c2nnc(N3CCC(C(=O)NCCCN4C(C)CCCC4C)CC3)s2)cc1` (stereo not given), for which the AC50 was 5.36 µM. Consider `CN(C)c1ccnc2c[cH-]cc12.[Fe].c1ccc(-[c-]2[c-](-c3ccccc3)[c-](-c3ccccc3)[c-](-c3ccccc3)[c-]2-c2ccccc2)cc1` (stereo not given), for which the “activity change, negative = inhibition” value was “inactive”. For `CC(C)(C)OC(=O)N1CCCN(C(c2ccnc3ccccc23)c2nnnn2-c2ccc3c(c2)OCCO3)CC1` (stereo not given), the AC50 was 0.312 µM. Still for that read-out and setting: the same measure for `CN(C)CC/C=C1\c2ccc(F)cc2Sc2cc(F)c(Cl)cc21`: 9.52 µM; for `CC1(C)CC(Nc2ccc(Nc3ccccc3)cc2)CC(C)(C)N1`: 6.78 µM. Take `C#CCOCCOCCOCCNc1nc(N2CCN(C(=O)[C@H](CCCCN)n3cc([C@@H](N)CC(N)=O)nn3)CC2)nc(N2CCN(C(=O)[C@H](CCCCN)n3cc([C@@H](N)CC(N)=O)nn3)CC2)n1`: the AC50 was 6.87 µM. Turning to `CC(=O)Nc1ccc(S(=O)(=O)NC2=C(N3CCN(Cc4ccccc4)CC3)C(=O)c3ccccc3C2=O)cc1`, the “activity change, negative = inhibition” value was “inactive”. For `CN(CCc1ccccc1)C(=O)c1ccc(NC(=O)Cc2ccc(NC(=O)C3CCN(C(=O)C4CCCC4)CC3)cc2)cc1`, the AC50 is below 0.08 µM. On to `C#CCOCCOCCOCCNc1nc(N2CCN(C(=O)[C@H](CCCN=C(N)N)n3cc(C(N)[C@@H](C)CC)nn3)CC2)nc(N2CCN(C(=O)[C@H](CCCCN)n3cc([C@@H](N)CC(N)=O)nn3)CC2)n1` (stereo not given in full), for which the “activity change, negative = inhibition” value was “inactive”. In the case of `CCN(CC)c1ccc(C(=C2C=CC(=[N+](CC)CC)C=C2)c2ccc(S(=O)(=O)O)cc2S(=O)(=O)[O-])cc1`, the AC50 was 4.29 µM. Consider `CCCC(=O)NC(c1ccc(N(C)C)cc1)c1ccc2cccnc2c1O` (stereo not given), for which the AC50 is 1.04 µM. The same measure, in the same setting: the value for `COc1ccc(OC)c(Nc2c3ccccc3nc3ccccc23)c1` was 7.11 µM. Still for that read-out and setting: the value for `Oc1c(C(Nc2cccc(C(F)(F)F)c2)c2ccncc2)ccc2cccnc12` (stereo not given) was 0.515 µM. On to `CC#C[C@]1(O)CC[C@H]2[C@@H]3CCC4=CC(=O)CCC4=C3[C@@H](c3ccc(N(C)C)cc3)C[C@@]21C`, for which the “activity change, negative = inhibition” value was “inactive”. Same read-out and setting: the value for `CCn1c(C)c(C(C)=O)c(N2CCN(c3ccc(OC)cc3)CC2)nc1=S` was “inactive”; that for `Oc1c(C(c2ccc(Cl)cc2)N2CCCC2)cc(Cl)c2cccnc12` (stereo not given) was “inactive”. Same read-out and setting: the same measure for `Cc1c(C)n(Cc2ccc(Cl)cc2)c2ccc(C(=O)NCCCN3CCOCC3)cc12`: “inactive”; for `CCN(CC)c1ccc(CN2CCC(C(=O)NCc3ccc(C)cc3)CC2)cc1`: “inactive”. As for `CN1CCN(c2ccc(N)cc2Cl)CC1`, the AC50 was 2.11 µM.

Regarding `CC(C)(c1ccccc1)c1ccc(OCC(O)CNC2CCN(Cc3ccccc3)CC2)cc1` (stereo not given), the AC50 is 0.841 µM. For the molecule `CCN(CC)c1ccc(N=Cc2ccc([N+](=O)[O-])o2)cc1`, the “activity change, negative = inhibition” value is “inactive”.

In the case of `COc1cc(N(C)C)ccc1C=c1c2ccccc2n2c1cc(-c1ccccc1)[n+]2C`, the AC50 was 1.88 µM. For the molecule `C/C(=N\Nc1nc2ccccc2[nH]1)c1ccc2c(c1)OCO2`, the “activity change, negative = inhibition” value is “inactive”. The same measure, in the same setting: the same measure for `CC1Cc2ccccc2N1C(=O)c1ccc(N2CCCC2)c([N+](=O)[O-])c1` (stereo not given): “inactive”. For the molecule `CN(C)c1ccc(N=C/C=C2/N(C)c3ccccc3C2(C)C)cc1`, the AC50 is 7.5 µM. On the same count and under the same terms, the same measure for `Oc1cc(NCCN2CCOCC2)cc2cccnc12`: 7.86 µM. Consider `Cc1cccc(Nc2cc(C)c3c(O)cccc3n2)c1C`, for which the “activity change, negative = inhibition” value was “inactive”. In the case of `CCOc1ccc(NCc2cccn2-c2nnc(N3CCC(C(=O)NCCCN4CCCCC4)CC3)s2)cc1`, the AC50 was 5.94 µM. For `CNC(=S)N1N=C(c2ccc(Br)cc2)CC1c1ccc(N(C)C)cc1` (stereo not given), the “activity change, negative = inhibition” value is “inactive”.

Consider `CN(C)c1ccc(C(CNC(=O)c2ccccc2)c2c[nH]c3ccccc23)cc1` (stereo not given), for which the “activity change, negative = inhibition” value is “inactive”. Still for that read-out and setting: the same measure for `CCOc1ccc(NC(=S)N(CCN2CCOCC2)Cc2ccc3c(c2)CCCN3CC)cc1`: “inactive”.

The values above are taken from PubChem BioAssay AID720495 (Broad Institute, 2013).
